Experimental data published in PubChem BioAssay (NCI).
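48-hour exposure; five concentrations; linearly interpolated endpoints. TGI: total growth inhibition.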

Tests used:
Assay in all cases: growth of human tumour cells (NCI), 48 h
RXF 393 renal = test system: RXF 393 renal
OVCAR-3 ovarian = test system: OVCAR-3 ovarian
MOLT-4 leukemia = test system: MOLT-4 leukemia
SW-620 colon = test system: SW-620 colon
SF-268 CNS = test system: SF-268 CNS
BT-549 breast = test system: BT-549 breast
IGROV1 ovarian = test system: IGROV1 ovarian
K-562 leukemia = test system: K-562 leukemia
NCI-H226 lung = test system: NCI-H226 lung
A549 NSCLC = test system: A549 NSCLC
MDA-N = test system: MDA-N
HT29 colon = test system: HT29 colon
NCI-H460 lung = test system: NCI-H460 lung
UACC-62 melanoma = test system: UACC-62 melanoma
HCT-116 colon = test system: HCT-116 colon
NCI/ADR-RES ovarian = test system: NCI/ADR-RES ovarian
786-0 renal = test system: 786-0 renal
NCI-H23 lung = test system: NCI-H23 lung
UACC-257 melanoma = test system: UACC-257 melanoma
DU-145 prostate = test system: DU-145 prostate
HL-60(TB) leukemia = test system: HL-60(TB) leukemia
SNB-75 CNS = test system: SNB-75 CNS
SN12C renal = test system: SN12C renal
MCF7 breast = test system: MCF7 breast
EKVX NSCLC = test system: EKVX NSCLC
HOP-62 NSCLC = test system: HOP-62 NSCLC
OVCAR-4 ovarian = test system: OVCAR-4 ovarian
NCI-H522 lung = test system: NCI-H522 lung
HCT-15 colon = test system: HCT-15 colon
OVCAR-8 ovarian = test system: OVCAR-8 ovarian
OVCAR-5 ovarian = test system: OVCAR-5 ovarian
HCC-2998 colon = test system: HCC-2998 colon
SK-OV-3 ovarian = test system: SK-OV-3 ovarian
ACHN renal = test system: ACHN renal
U251 CNS = test system: U251 CNS
UO-31 renal = test system: UO-31 renal
CCRF-CEM leukemia = test system: CCRF-CEM leukemia
MALME-3M melanoma = test system: MALME-3M melanoma
SR leukemia = test system: SR leukemia
TK-10 renal = test system: TK-10 renal
SF-295 CNS = test system: SF-295 CNS
COLO 205 colon = test system: COLO 205 colon
SK-MEL-28 melanoma = test system: SK-MEL-28 melanoma
KM12 colon = test system: KM12 colon
SNB-19 CNS = test system: SNB-19 CNS
PC-3 prostate = test system: PC-3 prostate
CAKI-1 renal = test system: CAKI-1 renal
SF-539 CNS = test system: SF-539 CNS
M14 melanoma = test system: M14 melanoma
SK-MEL-5 melanoma = test system: SK-MEL-5 melanoma
RPMI-8226 leukemia = test system: RPMI-8226 leukemia
SK-MEL-2 melanoma = test system: SK-MEL-2 melanoma

With `COc1cc(/C=C(\C#N)c2ccccn2)cc(Br)c1O` the TGI (RXF 393 renal) was > 100 µM, the TGI (OVCAR-3 ovarian) was > 100 µM and the TGI (MOLT-4 leukemia) was > 100 µM. For the same compound, the TGI (SW-620 colon) was > 100 µM, the TGI (SF-268 CNS) was > 100 µM and the TGI (BT-549 breast) was > 100 µM. The TGI (IGROV1 ovarian) was > 100 µM, the TGI (K-562 leukemia) was > 100 µM and the TGI (NCI-H226 lung) was > 100 µM. For the same compound, the TGI (A549 NSCLC) was > 100 µM, the TGI (MDA-N) was > 100 µM and the TGI (HT29 colon) was > 100 µM. The TGI (NCI-H460 lung) was > 100 µM, the TGI (UACC-62 melanoma) was > 100 µM and the TGI (HCT-116 colon) was > 100 µM. For the same compound, the TGI (NCI/ADR-RES ovarian) was 75 µM, the TGI (786-0 renal) was > 100 µM and the TGI (NCI-H23 lung) was > 100 µM. The TGI (UACC-257 melanoma) was > 100 µM, the TGI (DU-145 prostate) was > 100 µM and the TGI (HL-60(TB) leukemia) was > 100 µM. For the same compound, the TGI (SNB-75 CNS) was > 100 µM, the TGI (SN12C renal) was > 100 µM and the TGI (MCF7 breast) was > 100 µM. For the same compound, the TGI (EKVX NSCLC) was > 100 µM, the TGI (HOP-62 NSCLC) was > 100 µM and the TGI (OVCAR-4 ovarian) was > 100 µM. For the same compound, the TGI (NCI-H522 lung) was > 100 µM, the TGI (HCT-15 colon) was > 100 µM and the TGI (OVCAR-8 ovarian) was > 100 µM. The TGI (OVCAR-5 ovarian) was > 100 µM, the TGI (HCC-2998 colon) was > 100 µM and the TGI (SK-OV-3 ovarian) was > 100 µM. The TGI (ACHN renal) was > 100 µM, the TGI (U251 CNS) was > 100 µM and the TGI (UO-31 renal) was > 100 µM. The TGI (CCRF-CEM leukemia) was > 100 µM, the TGI (MALME-3M melanoma) was > 100 µM and the TGI (SR leukemia) was > 100 µM. The TGI (TK-10 renal) was > 100 µM, the TGI (SF-295 CNS) was 83.2 µM and the TGI (COLO 205 colon) was > 100 µM. For the same compound, the TGI (SK-MEL-28 melanoma) was > 100 µM, the TGI (KM12 colon) was > 100 µM and the TGI (SNB-19 CNS) was > 100 µM. For the same compound, the TGI (PC-3 prostate) was > 100 µM, the TGI (CAKI-1 renal) was > 100 µM and the TGI (SF-539 CNS) was > 100 µM. For the same compound, the TGI (M14 melanoma) was > 100 µM, the TGI (SK-MEL-5 melanoma) was > 100 µM and the TGI (RPMI-8226 leukemia) was > 100 µM. For the same compound, the TGI (SK-MEL-2 melanoma) was > 100 µM.
